Consider 80 compounds from the METLIN SMRT retention time set (Domingo-Almenara et al. 2019).

This data set is described as follows: gradient 5% acetonitrile 3 min, to 50% in 2 min, to 85% in 15 min, held 3 min, 100 µL/min. The following applies: column: Zorbax Extend-C18 2.1 x 50 mm; eluents: water / acetonitrile, 0.1% formic acid. An outline of the steps:
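In both positive and negative ionization mode, a quadrupole time-of-flight mass spectrometer coupled to HPLC analyzed pure standards run in mixtures of ~100 molecules. The Zorbax Extend-C18 column (2.1 × 50 mm, 1.8 μm) was operated at 100 μL/min with water and acetonitrile, each containing 0.1% formic acid. The dead volume was 40 μL and the dwell volume 900 μL. Retention time came from adduct peaks that were computationally picked and individually inspected by hand.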
Take `Cn1c(CCCC(=O)O)nc2cc(N(CCCl)CCCl)ccc21`: the RP-LC retention time turned out to be 747 s.
As to `CCC(C)NC(=O)C1c2ccccc2CC(=O)N1C` (stereo not given), the RP-LC retention time was 658 s.
`O=C(Cc1ccc(F)cc1)N1CCN(c2cc(-c3cccs3)[nH]n2)CC1` displayed an RP-LC retention time of 782 s.
Under `Fc1cccc(-c2noc(-c3nc(-c4ccncc4)no3)n2)c1` stands 951 s; under `COc1ccc(NC(=O)C2CCCCC2)c2ccccc12`, 861 s; under `CCC(=O)N1CCc2sc(C(=O)NCc3ccc(Cl)cc3)cc2C1`, 802 s.
Under `Cc1c(Cl)cccc1S(=O)(=O)NCC1CCN(C(=O)c2cccn(C)c2=O)CC1` stands 654 s; under `O=C(COc1cccc(C(F)(F)F)c1)NCCCn1nc(-c2ccncc2)ccc1=O`, 601 s; under `COc1ccc(-c2nc3ccccn3c2NC(=O)c2cccc([N+](=O)[O-])c2)cc1`, 659 s.
Under `CCCN1C(=O)CN(C2CCCCC2)C(=O)C1c1ccc(OC)c(OC)c1` (stereo not given) stands 777 s; under `CCc1nnc(-c2ccc(NS(=O)(=O)c3cccs3)cc2)o1`, 772 s.
Turning to `CCOC(=O)c1ccccc1NC(=O)N(CC)Cc1cc(=O)[nH]c2ccccc12`, the RP-LC retention time is 907 s.
As for `O=S(=O)(c1ccccc1)c1cnc2c(N3CCNCC3)cccc2c1`, the figure is 691 s; as for `O=C(Nc1ccc(F)c(F)c1)C1CCc2nc(N3CCOCC3)ncc2C1` (stereo not given), 742 s; as for `Cc1ccccc1NC(=O)Cc1cn2cc(Cl)ccc2n1`, 620 s.
Under `NS(=O)(=O)c1ccc(CNC(=O)C2CN(C(=O)c3ccc(F)c(F)c3)C2)cc1` stands 631 s.
Under `CN(CCCNC(=O)c1ccc2c(c1)NC(=O)C1CCCCN21)Cc1ccccc1` (stereo not given) stands 617 s; under `COc1cc(NC(=O)N2CCC(C)(C(=O)NCc3ccc(C)cc3)CC2)cc(OC)c1OC`, 765 s; under `O=C(c1ccc(=O)n(CCN2CCCC2)c1)N1CCN(c2ccccc2F)CC1`, 619 s.
`COc1ccc(OC)c(Nc2c(-c3nc(C)no3)cnc3nc(C)ccc23)c1` yielded an RP-LC retention time of 610 s.
As for `CCOCCCNC(=O)CCc1nnc2ccc(-c3ccc(C)c(C)c3)nn12`, the figure is 754 s; as for `CCc1noc(-c2ccnc(-n3ncc(C(=O)NC4CCCCC4)c3C)c2)n1`, 1020 s.
Take `COc1ccc(-n2c(=O)c(C(=O)NC3CCCC3)c(O)c3cccnc32)cc1`: the RP-LC retention time turned out to be 1170 s.
As for `COCCc1noc(CC2CCOC3(CCN(C(=O)NC(C)(C)C)CC3)C2)n1` (stereo not given), the figure is 700 s.
Under `O=C(Cn1c(=O)c2cc(C3CC3)nn2c2ncccc21)NCc1ccc(Cl)cc1` stands 791 s.
Under `CC(C)OCCCNC(=O)C(C)n1c(=O)c(C(F)(F)F)nc2ccccc21` (stereo not given) stands 972 s; under `Cc1ccc(-c2cc3c(=O)n(Cc4noc(CN5CCCC5)n4)ccn3n2)cc1`, 654 s; under `N#Cc1cccc(NC(=O)Cn2nc3n(c2=O)CCCC3)c1`, 638 s.
Compound `CCOCCCNC(=O)C1CCCN(c2ccc(=O)n(-c3ccc(C)c(Cl)c3)n2)C1` (stereo not given) came in with an RP-LC retention time of 826 s.
As for `COc1ccccc1-c1cc2nc(C)cc(NCC3CCCO3)n2n1` (stereo not given), the figure is 592 s; as for `Cc1cccc2c(C(=O)NC(C)C)cc(N(C)C)nc12`, 614 s.
As for `CC(C)n1cc(C2=CCN(S(=O)(=O)Cc3ccccc3)CC2)c2cccnc21`, the figure is 1020 s.
As for `CN1CC(=O)N(CC(=O)Nc2cccc(C#N)c2)c2ccccc2C1=O`, the figure is 653 s.
The compound `Cn1c(C(=O)N2CCN(c3ncccn3)CC2)cc2c(-c3cccs3)nn(-c3ccccc3)c21` gave an RP-LC retention time of 1030 s.
As for `COc1ccccc1N1CCN(c2nc3ccc(C)cc3cc2-c2noc(C)n2)CC1`, the figure is 732 s; as for `O=C1CCCC(=O)N1CCS(=O)(=O)N1CCN(c2cccc(Cl)c2Cl)CC1`, 887 s.
Under `O=C(Nc1cccc(C(F)(F)F)c1)Nc1cccn2ncnc12` stands 896 s; under `O=C(Oc1coc(CSc2ncccn2)cc1=O)c1cccs1`, 695 s; under `CCOc1ccc(NS(=O)(=O)c2cc(C(=O)Nc3ccc(Br)cc3)n[nH]2)cc1`, 927 s.
Under `O=C(O)CCCCCNc1nc(-c2ccccc2)nc2ccccc12` stands 623 s; under `O=C(N[C@H]1C[C@@H]2C[C@H]1CN2C(=O)Nc1ccc2c(c1)OCO2)c1cccs1`, 623 s.
For `COc1ccc(CNC(=O)Cn2c(=O)c3c(C(=O)N4CCCCC4)cc(C)nc3n(C)c2=O)cc1`, the RP-LC retention time is 761 s.
Under `Cc1ccccc1-c1nc(-c2ccc3c(c2)oc(=O)n3C)no1` stands 1110 s.
As for `Cc1ccc(NC(=O)c2cn(-c3cc(N(C)C)ncn3)cn2)cc1F`, the figure is 884 s.
`CC1(C)C(=O)N(CC(=O)N2CCN(c3ccccn3)CC2)c2ccccc21` had an RP-LC retention time of 600 s.
Under `COc1cc(C2=NN(C(C)=O)C(c3ccncc3)O2)cc(OC)c1OC(C)=O` (stereo not given) stands 714 s.
Compound `Cc1cc(S(=O)(=O)N2CC(N(Cc3ccncc3)CC3CC3)C2)ccc1F` yielded an RP-LC retention time of 709 s.
Take `CCCn1cc(-c2ccncc2)cc1C(=O)NCc1cc(F)cc(F)c1`: the RP-LC retention time came to 711 s.
`CN(C)C(=O)C1c2ccccc2CCN1CC(=O)N1CCN(c2ccc(Cl)cc2)CC1` (stereo not given) returned an RP-LC retention time of 742 s.
`COc1c(C)cnc(Cn2ccn3nc(-c4ccc(F)cc4)c(CO)c3c2=O)c1C`: the RP-LC retention time is 843 s.
As for `O=C(NCC1CCCO1)c1nnc(-c2ccc(S(=O)(=O)N3CCCC3)cc2)o1` (stereo not given), the figure is 729 s; as for `CCc1cccc(C)c1NC(=O)Cn1c(=O)n(-c2ccccc2)c(=O)c2c1cc(C)n2C`, 833 s.
Take `CC(=O)N1CCc2cc(C)c(S(=O)(=O)NCC3CCCO3)cc21` (stereo not given): the RP-LC retention time was 691 s.
As for `CCc1cc(C(=O)Nc2ccc(Cl)cc2)nc2ccnn12`, the figure is 1080 s; as for `O=C(Nc1nnc2n1CCS2)c1cc(Br)ccc1Cl`, 657 s; as for `COc1ccc(-c2noc(C3CCCN3C(=O)c3ccsc3)n2)cc1` (stereo not given), 849 s.
As to `CN(C)CCNC(=O)c1ccnc(-c2ccsc2)c1`, the RP-LC retention time amounted to 573 s.
As for `Cn1c(SCC(=O)Nc2nc(-c3ccccc3)cs2)nnc1-c1cc2ccccc2o1`, the figure is 961 s; as for `COc1ccc(NC(=O)N2CCN(c3cc(-n4nc(C)cc4C)ncn3)CC2)cc1Cl`, 852 s; as for `Cc1cccc(CNC(=O)C2CCN(S(=O)(=O)c3cc(C(=O)N4CCOCC4)cs3)CC2)c1`, 763 s.
Take `O=C(Nc1cccc(-c2nnc3n2CCCC3)c1)C1CCCCC1`: the RP-LC retention time was 699 s.
Under `O=C(NCC1CCN(Cc2ccccc2F)CC1)C1CCN(c2ccc3nncn3n2)CC1` stands 584 s.
Under `COc1ccc2nc(C(=O)NCc3cccc(F)c3)cn2n1` stands 778 s.
As for `Cn1c(C(=O)NCc2cc(F)ccc2F)cc2ccncc21`, the figure is 622 s.
`Cc1cccc(-c2nc(C3CCN(S(=O)(=O)c4ccccc4F)CC3)no2)c1` displayed an RP-LC retention time of 1160 s.
As for `Cc1cc2nn(CC(=O)NCc3ccco3)c(=O)n2c(Nc2ccc(C)c(F)c2)n1`, the figure is 923 s; as for `O=C(CC(F)(F)F)N1CCCC(CCc2nnc(C3CCOCC3)o2)C1` (stereo not given), 682 s; as for `Cc1cc2[nH]c(C(=O)Nc3cc(F)ccc3F)c(CN3CCOCC3)c2s1`, 730 s.
As for `CCN1C(=O)c2cc(S(=O)(=O)NCc3cccc(Cl)c3)ccc2Oc2cccnc21`, the figure is 1030 s; as for `CCN(CCN(C)C)C(=O)c1c2c(nc3ccccc13)C(=O)N(C1CCCCC1)C2`, 601 s.
As for `CNCc1ccc(-c2ccc(Cl)cc2Cl)o1`, the figure is 658 s; as for `CN1C(=O)COc2cc(-c3noc(C(=O)N4CCCCCC4)n3)ccc21`, 919 s.
Compound `O=C(Nc1cccc(C(F)(F)F)c1)N1C[C@H]2C[C@H](C1)[C@H]1CCCC(=O)N1C2` yielded an RP-LC retention time of 731 s.
Under `O=S(=O)(Nc1ccc(F)cc1)c1cccnc1Nc1ccccc1` stands 1050 s; under `Cc1ccn2cc(-c3ccc(NC(=O)c4ccc(F)cc4)cc3)nc2n1`, 648 s; under `CCOC(=O)c1c(C)[nH]c(C(=O)N2CCC(CC(=O)NCc3ccccc3Cl)CC2)c1C`, 813 s.
Under `O=S(=O)(NC1CCCCCC1)c1ccc(-c2nnc(C3CC3)o2)o1` stands 920 s; under `Cc1cc(S(=O)(=O)N2CC[C@H](n3c(=O)n(C)c4cccnc43)C2)ccc1F`, 864 s.
Under `CCc1ccc(Nc2nc(C(=O)NCCc3cccs3)nc3ccccc23)cc1` stands 907 s.
Regarding `CCC(Sc1ncnc2c1cnn2-c1ccc(F)cc1)C(=O)OC` (stereo not given), the RP-LC retention time stood at 1170 s.
